Results published in patent US8598120B2 (Amylin Pharmaceuticals, LLC, priority 2004, dated 2013).
Square brackets hold non-standard residues; d marks the D form. Ends that are not written are not given here. Orn = NCCC[C@H](N)C(=O)O

Test: Food intake assay in overnight fasted mice
Assay type: in vivo
Conditions: 25 nmol/kg intraperitoneal
Description: Female NIH/Swiss mice (8-14 weeks old) were group housed with a 12:12 hour light:dark cycle. Water and a standard pelleted mouse chow diet are available ad libitum, except as noted. Animals are fasted starting at approximately 1500 hrs, 1 day prior to experiment.
The effects of treatment on food intake are expressed as % change relative to control.

Substance	cumulative food intake compared to vehicle, 30 min [%]	cumulative food intake compared to vehicle, 60 min [%]	cumulative food intake compared to vehicle, 120 min [%]	cumulative food intake compared to vehicle, 180 min [%]
KCNTATCVTHRLSQELHRLQTYPRTNTGSNTY [Compound 87]	−43	−32	−21	
ACDTATCVLGRLSQELHRLQTYPRTNTGSNTY [Compound 92]	−31	−29	−30	−27
KCNTATCVLG[Orn]LSQELH[Orn]LQTYPRTNTGSNTY (cysteine pairing not given here) [Compound 61]	−23	−27	−32	
KCNTAACVLGRLSQELHRLQTYPRTNTGSNTY [Compound 18]	−2	−7	−16	−21
KCNTATCVLGRLADFLHRLQTYPRTNTGSNTY [Compound 88]	−64	−61	−39	−22
CSNLATCVLGRLSQELHRLQTYPRTNTGSNTY [Compound 22]	−11	−20	−31	−30
KCNTATCVLGRLSQELH[Orn]LQTYPRTNTGSNTY (cysteine pairing not given here) [Compound 77]	−46	−43	−44	
KCNTATCVLGRLADFLHRFQTFPRTNTGSGTP [Compound 109]	−61	−54	−43	
KCNTATCVLGRLSQELHKLQTYPRTNTGSNTY [Compound 24]	−40	−34	−35	−35
KCNTATCVLGRLSQELHRYPRTNTGSNTY [Compound 39]	7	−14	−23	
KCNTATCVLGRLSQELHRLQTYPRTNTGSKAF [Compound 93]	−43	−30	−27	−29
KCNTATCVLGRLSRSLHRLQTYPRTNTGSNTY [Compound 86]	−44	−26	−16	
KCNTATCVLG(homoK)LSQELH(homoK)LQTYPRTNTGSNTY [Compound 63]	−19	−22	−28	
KCNTATCVLGRLSQELHRLQTVPRTNTGSNTY [Compound 100]	−60	−52	−41	
